Where two headings read alike, the source gives them in different places.
Tests used:
mouse vas deferens = molecular target: T1, mouse vas deferens (Mus musculus, UniProt P32300); assay: cell-based; type: cell-based
T1 construct: Vasa deferentia were removed from mice; from tissue; host or cells: mouse vas deferens

Delta Receptor [1] = molecular target: T2, Delta Receptor (Rattus norvegicus, UniProt P33533); assay: Delta receptor binding, rat brain membranes; parameters: species or system rat (Sprague-Dawley)
T2 construct: Rat (Sprague-Dawley) brain membranes were prepared; from tissue; host or cells: rat (Sprague-Dawley) brain membranes
T2 sequence (P33533 whole entry): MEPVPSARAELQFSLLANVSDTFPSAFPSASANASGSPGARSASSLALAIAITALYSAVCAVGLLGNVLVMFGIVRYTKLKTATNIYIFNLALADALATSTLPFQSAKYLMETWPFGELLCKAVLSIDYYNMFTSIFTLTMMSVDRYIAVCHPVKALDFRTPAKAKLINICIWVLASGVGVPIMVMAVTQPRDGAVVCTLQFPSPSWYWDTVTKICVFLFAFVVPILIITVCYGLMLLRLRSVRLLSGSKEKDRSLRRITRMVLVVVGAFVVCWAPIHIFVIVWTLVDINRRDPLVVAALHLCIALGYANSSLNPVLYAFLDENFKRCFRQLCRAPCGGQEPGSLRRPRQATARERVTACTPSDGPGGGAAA

guinea pig ileum = assay: Inhibition of electrically stimulated contraction of guinea pig ileum; type: cell-based; conditions: Cavia porcellus, mean of (n) experiments, read-out: Guinea Pig lleum ED50
Mu Receptor = molecular target: T3, Mu Receptor (Rattus norvegicus, UniProt P33535); assay: Mu receptor binding, rat brain membranes; parameters: species or system rat (Sprague-Dawley)
T3 construct: Rat (Sprague-Dawley) brain membranes were prepared; from tissue; host or cells: rat (Sprague-Dawley) brain membranes
T3 sequence (P33535 whole entry): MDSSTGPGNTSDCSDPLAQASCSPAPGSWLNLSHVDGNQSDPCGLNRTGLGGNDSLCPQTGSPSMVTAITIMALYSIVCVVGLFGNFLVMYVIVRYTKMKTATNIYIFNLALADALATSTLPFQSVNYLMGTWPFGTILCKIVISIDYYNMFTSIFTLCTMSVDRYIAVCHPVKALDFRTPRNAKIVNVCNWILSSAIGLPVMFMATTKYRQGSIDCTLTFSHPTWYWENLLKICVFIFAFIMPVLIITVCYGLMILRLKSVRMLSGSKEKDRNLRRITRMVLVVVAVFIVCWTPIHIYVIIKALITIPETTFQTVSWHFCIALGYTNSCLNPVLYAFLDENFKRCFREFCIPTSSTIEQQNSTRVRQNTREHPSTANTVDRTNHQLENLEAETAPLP

delta-opioid receptor = assay: Tail flick test, injection into brain (icv); type: in vivo; conditions: mice
delta receptor [2] = molecular target: delta receptor (Mus musculus, UniProt P32300); assay: Delta opioid receptor agonist activity; conditions: in words
Sequence of delta receptor (P32300 whole entry): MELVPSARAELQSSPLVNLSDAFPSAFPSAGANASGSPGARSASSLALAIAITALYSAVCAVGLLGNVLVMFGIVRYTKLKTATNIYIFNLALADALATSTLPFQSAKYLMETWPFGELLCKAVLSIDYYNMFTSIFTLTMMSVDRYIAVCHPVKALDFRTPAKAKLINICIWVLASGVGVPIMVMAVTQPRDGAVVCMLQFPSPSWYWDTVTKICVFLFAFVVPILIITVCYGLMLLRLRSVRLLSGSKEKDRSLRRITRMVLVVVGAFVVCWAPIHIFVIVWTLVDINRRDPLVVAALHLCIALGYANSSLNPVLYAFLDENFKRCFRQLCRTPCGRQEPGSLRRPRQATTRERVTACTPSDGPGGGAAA

[3] = 125I-[D-Ala2,D-Leu5]enkephalin 0.24 nM with mu-agonist morphiceptin analog, 24° C., 60 min, mean of (n) experiments, read-out: Delta Receptor IC50
[4] = 125I-[D-Ala2,N-MePhe4,Met(O)ol5]enkephalin 0.1 nM, 24° C., 60 min, mean of (n) experiments, read-out: Mu Receptor IC50
[5] = electrically stimulated, 37° C., mean of (n) experiments, read-out: Mouse Vas Deferens ED50

T1 sequence (P32300 whole entry): as above

SMILES | IC50 (mouse vas deferens) | IC50 (Delta Receptor [1]; [3]) | IC50 (guinea pig ileum) | IC50 (Mu Receptor; [4]) | other results
C=CCN1C[C@H](C)N(C(c2ccc(C(=O)N(CC)CC)cc2)c2cccc(NC=O)c2)C[C@H]1C (mixture of isomers) [Example 36, (±)-trans-4-(α-(4-allyl-2,5-dimethyl-1-piperazinyl)-3-formamidobenzyl)-N,N -diethylbenzamide] | 2 nM | 9.1 nM | 1300 nM | 260 nM | –
CCN(CC)C(=O)c1ccc(C(C2=C(C)CN(C)C(C)C2)c2cccc(O)c2)cc1 (racemic) [Example 51, (±)-(R*, R*) or (R*, S*)-N,N-diethyl-4-(3-hydroxy-α-(1,2,5,6-tetrahydro-1,3,6-trimethyl-4-pyridyl)benzyl)benzamide] | – | 2.5 nM | 3000 nM | 130 nM | IC50 (mouse vas deferens; [5]): 52 nM
CCN(CC)C(=O)c1ccc(C(c2cccc(O)c2)N2C[C@@H](C)N(C)[C@@H](C)C2)cc1 (relative stereo) [Compound E] | – | – | – | – | analgesic activity in the tail flick test (delta-opioid receptor): provide analgesic activity; reversal of analgesia by injection of naloxone or delta-specific antagonists (ICI 174,864 or naltrindole) (delta-opioid receptor): reversible; agonist activity in the mouse vas deferens (mouse vas deferens; in words): inactive as an agonist; antagonist activity in the mouse vas deferens (mouse vas deferens; in words): may be a weak antagonist
C=CCN1C[C@H](C)N([C@H](c2ccc(C(=O)NCC(=O)NCC(=O)O)cc2)c2cccc(O)c2)C[C@H]1C (relative stereo) [Compound H] | – | – | – | – | delta receptor agonist activity (delta receptor [2]): delta receptor agonist activity
C=CCN1C[C@H](C)N([C@H](c2ccc(C(=O)N(CC)CCO)cc2)c2cccc(O)c2)C[C@H]1C (relative stereo) [Compound J] | – | – | – | – | delta receptor agonist activity (delta receptor [2]): potent delta receptor agonist activity
C=CCN1C[C@H](C)N([C@H](c2ccc(C(=O)N(CC)CC)cc2)c2cccc(O)c2)C[C@H]1C (relative stereo) [Example 6, (±)-4-((αR*)-α-((2S*,5R*)-4-Allyl-2,5-dimethyl-1-piperazinyl)-3-hydroxybenzyl)-N,N-diethylbenzamide] | 0.2 nM | 1.8 nM | 143 nM | – | –
C=CCN1C[C@@H](C)N([C@H](c2ccccc2)c2cccc(O)c2)C[C@@H]1C (relative stereo) [Example 9, (±)-3-((αR*)-α-((2R*,5S*)-4-Allyl-2,5-dimethyl-1-piperazinyl)benzyl)phenol] | 40 nM | 16 nM | 4 nM | 1.1 nM | –
C/C=C\CN1[C@H](C)CN(C(c2ccc(C(=O)N(CC)CC)cc2)c2cccc(O)c2)C[C@@H]1C (relative stereo) [Example 11, cis-4-(α-(4-((Z)-2-Butenyl)-3,5-dimethyl-1-piperazinyl)-3-hydroxybenzyl)-N,N-diethylbenzamide] | > 10000 nM | – | 3600 nM | 600 nM | –
CCN(CC)C(=O)c1ccc([C@H](c2cccc(O)c2)N2C[C@H](C)NC[C@H]2C)cc1 (relative stereo) [Example 15, (±)-4-((αR*)-α-((2R*,5S*)-2,5-Dimethyl-1-piperazinyl)-3-hydroxybenzyl)-N,N-diethylbenzamide] | 4400 nM | – | 2700 nM | 120 nM | –
C=CCN1C[C@H](C)N([C@H](c2ccc(C(=O)NCC(=O)NCC(=O)O)cc2)c2cccc(O)c2)C[C@H]1C (relative stereo) [Example 25, (±)-N-(4-((αR*)-α-((2S*,5R*)-4-Allyl-2,5-dimethyl-1-piperazinyl)-3-hydroxybenzyl)benzoyl)glycylglycine] | 2 nM | 0.4 nM | 300 nM | 70 nM | –
CCN(CC)C(=O)c1ccc(C(c2cccc(O)c2)N2C[C@@H](C)N(C)[C@@H](C)C2)cc1 (relative stereo) [Example 34, N,N-Diethyl-4-(3-hydroxy-α-(cis-3,4,5-trimethyl-1-piperazinyl)benzyl)benzamide] | > 10000 nM | 4 nM | 3700 nM | > 10000 nM | –
C=CCN1C[C@H](C)N([C@H](c2ccc(C(=O)NCCOCCOCCNC(=O)c3ccc([C@H](c4cccc(O)c4)N4C[C@@H](C)N(CC=C)C[C@@H]4C)cc3)cc2)c2cccc(O)c2)C[C@H]1C (relative stereo) [Example 41, N,N'-((Ethylenedioxy)diethylene)bis(4-((R*)-α-((2S*,5R*)-4-allyl-2,5-dimethyl-1-piperazinyl)-3-hydroxybenzyl)benzamide)] | – | 10 nM | 6.5 nM | 4 nM | IC50 (mouse vas deferens; [5]): 13 nM
C=CCN1C[C@H](C)N([C@H](c2cccc(O)c2)c2cccs2)C[C@H]1C (relative stereo) [Example 44, (±)-3-((R*)-((2S*,5R*)-4-Allyl-2,5-dimethyl-1-piperazinyl)(2-thienyl)methyl)phenol] | 37 nM | 11 nM | – | 0.8 nM | –
C=CCN1C[C@H](C)N([C@H](c2ccc(S(C)(=O)=O)cc2)c2cccc(O)c2)C[C@H]1C (relative stereo) [Example 54, (±)-3-((αR*)-α-((2S*,5R*)-4-allyl-2,5-dimethyl-1-piperazinyl)-4-(methylsulfonyl)benzyl)phenol] | 42 nM | 1.3 nM | 5600 nM | 40 nM | –
C=CCN1C[C@H](C)N([C@H](c2ccc(S(=O)(=O)N(CC)CC)cc2)c2cccc(O)c2)C[C@H]1C (relative stereo) [Example 59, (±)-4-((αR*)-α-((2S*,5R*)-4-Allyl-2,5-dimethyl-1-piperazinyl)-3-hydroxybenzyl)-N,N-diethylbenzenesulfonamide] | 2.6 nM | 20 nM | 1800 nM | 100 nM | –
C=CCN1C[C@H](C)N([C@H](c2ccc(C(=O)N(CC)CCO)cc2)c2cccc(O)c2)C[C@H]1C (relative stereo) [Example 60, (±)-4-((αR*))-α-((2S*,5R*)-4-Allyl-2,5-dimethyl-1-piperazinyl)-3-hydroxy-benzyl)-N-ethyl-N-(2-hydroxyethyl)benzamide] | 0.3 nM | 6.5 nM | 86 nM | 20 nM | –
C=CCN1C[C@H](C)N([C@@H](c2cccc(O)c2)c2cccc(C(=O)N(CC)CC)c2)C[C@H]1C (relative stereo) [Example 84, (±)-3-((αR*)-α-((2S*,5R*)-4-allyl-2,5-dimethyl-1-piperazinyl)-3-hydroxybenzyl)-N,N-diethylbenzamide] | 8.6 nM | 1.6 nM | 10 nM | – | –
C=CCN1C[C@H](C)N([C@H](c2ccc(C(=O)N(CC)CC)cc2)c2cccc(O)c2)C[C@H]1C [Example 6a, (+)-4-((αR)-α-((2S,5R)-4-Allyl-2,5-dimethyl-1-piperazinyl)-3-hydroxybenzyl)-N,N-diethylbenzamide] | 0.17 nM | 1.2 nM | 84 nM | – | –
CCN(CC)C(=O)c1ccc([C@H](c2cccc(O)c2)N2C[C@H](C)N(C)C[C@@H]2C)cc1 [Example 12, (+)-N,N-diethyl-4-(3-hydroxy-(αR)-α-((2S,5S)-2,4,5-trimethyl-1-piperazinyl)benzyl)benzamide] | 2 nM | 1.2 nM | > 10000 nM | 150 nM | –
C=CCN1C[C@H](C)N([C@H](c2cccc(O)c2)c2cccs2)C[C@H]1C [Example 67, (-)-3-((R)-((2S,5R)-4-Allyl-2,5-dimethyl-1-piperazinyl)(2-thienyl)methyl)phenol] | – | – | – | – | IC50 (mouse vas deferens; read-out: Mouse Vas Deferens ED50, electrically stimulated, 37° C., mean of (n) experiments): 20 nM; IC50 (Delta Receptor [1]; read-out: Delta Receptor IC50, 125I-[D-Ala2,D-Leu5]enkephalin 0.24 nM with mu-agonist morphiceptin analog, 24° C., 60 min, mean of (n) experiments): 27 nM; IC50 (Mu Receptor; read-out: Mu Receptor IC50, 125I-[D-Ala2,N-MePhe4,Met(O)ol5]enkephalin 0.1 nM, 24° C., 60 min, mean of (n) experiments): 0.3 nM

Reference: patent US5658908A (priority 1992, dated 1997)
